The values below come from patent US20210130346A1, “Bromodomain Inhibitors” (AbbVie Inc., priority 2017, published 2021).

Molecules are shown by their SMILES. Some results are limits rather than exact numbers.

This assay addresses BRD4 (BDI_K57-E168) (Homo sapiens, UniProt O60885). Nature of the assay: TR-FRET bromodomain binding assay, BRD4 first bromodomain (BDI). The settings on record: mean Ki; 12 nM His tagged BRD4 (BDI_K57-E168), 100 nM Alexa647 probe; Ki calculated from IC50, probe Kd and probe concentration. The protocol:
A time-resolved fluorescence resonance energy transfer (TR-FRET) assay was used to determine the affinities of compounds of the Examples listed in Table 1 for each bromodomain of BRD4. […] An Alexa647-labeled BET-inhibitor was used as the fluorescent probe in the assay.
Compound dilution series were prepared in DMSO via an approximately 3-fold serial dilution. Compound dilutions were added directly into white, low-volume assay plates (Perkin Elmer Proxiplate 384 Plus# 6008280) using a Labcyte Echo in conjunction with Labcyte Access and Thermo Multidrop CombinL robotics. Compounds were then suspended in eight microliters (μL) of assay buffer (20 mM Sodium Phosphate, pH 6.0, 50 mM NaCl, 1 mM Ethylenediaminetetraacetic acid disodium salt dihydrate, 0.01% Triton X-100, 1 mM DL-Dithiothreitol) containing His-tagged bromodomain, Europium-conjugated anti-His antibody (Invitrogen PV5596) and Alexa-647-conjugated probe.
After a one-hour equilibration at room temperature, TR-FRET ratios were determined using an Envision multilabel plate reader (Ex 340, Em 495/520).
TR-FRET data were normalized to the means of 24 no-compound controls (“high”) and 8 controls containing 1 μM un-labeled probe (“low”). Percent inhibition was plotted as a function of compound concentration and the data were fit with the 4 parameter logistic equation to obtain IC50s. Inhibition constants (Ki) were calculated from the IC50s, probe Kd and probe concentration.
Regarding `Cc1cc(-c2cc3c([C@H]4C[C@@]45C(=O)N(C)c4ccccc45)cn(C)c(=O)c3[nH]2)on1` (racemic) [Example 40, rac-(1R,2R)-1′-methyl-2-[6-methyl-2-(3-methyl-1,2-oxazol-5-yl)-7-oxo-6,7-dihydro-1H-pyrrolo[2,3-c]pyridin-4-yl]spiro[cyclopropane-1,3′-indol]-2′(1H)-one], the Ki was greater than 13 µM.
For `CN1C(=O)[C@@]2(C[C@H]2c2cn(C)c(=O)c3[nH]c(-c4nccn4C)cc23)c2ccccc21` (racemic) [Example 41, rac-(1R,2S)-1′-methyl-2-[6-methyl-2-(1-methyl-1H-imidazol-2-yl)-7-oxo-6,7-dihydro-1H-pyrrolo[2,3-c]pyridin-4-yl]spiro[cyclopropane-1,3′-indol]-2′(1H)-one] the value was 1.49 µM; for `CN1C(=O)[C@@]2(C[C@H]2c2cn(C)c(=O)c3[nH]c(-c4ncco4)cc23)c2ccccc21` (racemic) [Example 42, rac-(1R,2S)-1′-methyl-2-[6-methyl-2-(1,3-oxazol-2-yl)-7-oxo-6,7-dihydro-1H-pyrrolo[2,3-c]pyridin-4-yl]spiro[cyclopropane-1,3′-indol]-2′(1H)-one], 2.82 µM.
The result for `CN1C(=O)[C@@]2(C[C@H]2c2cn(C)c(=O)c3[nH]c(-c4cn(C)cn4)cc23)c2ccccc21` (racemic) [Example 43, rac-(1R,2S)-1′-methyl-2-[6-methyl-2-(1-methyl-1H-imidazol-4-yl)-7-oxo-6,7-dihydro-1H-pyrrolo[2,3-c]pyridin-4-yl]spiro[cyclopropane-1,3′-indol]-2′(1H)-one] reads 1.84 µM.
The result for `CN1C(=O)[C@@]2(C[C@H]2c2cn(C)c(=O)c3[nH]c(-c4cncn4C)cc23)c2ccccc21` (racemic) [Example 44, rac-(1R,2S)-1′-methyl-2-[6-methyl-2-(1-methyl-1H-imidazol-5-yl)-7-oxo-6,7-dihydro-1H-pyrrolo[2,3-c]pyridin-4-yl]spiro[cyclopropane-1,3′-indol]-2′(1H)-one] reads 1.3 µM.
For `CN1C(=O)[C@@]2(C[C@H]2c2cn(C)c(=O)c3[nH]c(-c4ccccn4)cc23)c2ccccc21` (racemic) [Example 45, rac-(1R,2S)-1′-methyl-2-[6-methyl-7-oxo-2-(pyridin-2-yl)-6,7-dihydro-1H-pyrrolo[2,3-c]pyridin-4-yl]spiro[cyclopropane-1,3′-indol]-2′(1H)-one], the Ki is greater than 13 µM.
The result for `Cc1ccnc(-c2cc3c([C@@H]4C[C@@]45C(=O)N(C)c4ccccc45)cn(C)c(=O)c3[nH]2)c1` (racemic) [Example 46, rac-(1R,2S)-1′-methyl-2-[6-methyl-2-(4-methylpyridin-2-yl)-7-oxo-6,7-dihydro-1H-pyrrolo[2,3-c]pyridin-4-yl]spiro[cyclopropane-1,3′-indol]-2′(1H)-one] reads greater than 13 µM.
The result for `CN1C(=O)[C@@]2(C[C@H]2c2cn(C)c(=O)c3[nH]c(-c4cccnc4)cc23)c2ccccc21` (racemic) [Example 47, rac-(1R,2S)-1′-methyl-2-[6-methyl-7-oxo-2-(pyridin-3-yl)-6,7-dihydro-1H-pyrrolo[2,3-c]pyridin-4-yl]spiro[cyclopropane-1,3′-indol]-2′(1H)-one] reads 2.62 µM; that for `CN1C(=O)[C@@]2(C[C@H]2c2cn(C)c(=O)c3[nH]c(-c4ccncc4)cc23)c2ccccc21` (racemic) [Example 50, rac-(1R,2S)-1′-methyl-2-[6-methyl-7-oxo-2-(pyridin-4-yl)-6,7-dihydro-1H-pyrrolo[2,3-c]pyridin-4-yl]spiro[cyclopropane-1,3′-indol]-2′(1H)-one], 1.28 µM; that for `CN1C(=O)[C@@]2(C[C@H]2c2cn(C)c(=O)c3[nH]c(-c4ccnc(C(F)(F)F)c4)cc23)c2ccccc21` (racemic) [Example 51, rac-(1R,2S)-1′-methyl-2-{6-methyl-7-oxo-2-[2-(trifluoromethyl)pyridin-4-yl]-6,7-dihydro-1H-pyrrolo[2,3-c]pyridin-4-yl}spiro[cyclopropane-1,3′-indol]-2′(1H)-one], 4.68 µM.
The result for `CN1C(=O)[C@@]2(C[C@H]2c2cn(C)c(=O)c3[nH]c(-c4cncnc4)cc23)c2ccccc21` (racemic) [Example 54, rac-(1R,2S)-1′-methyl-2-[6-methyl-7-oxo-2-(pyrimidin-5-yl)-6,7-dihydro-1H-pyrrolo[2,3-c]pyridin-4-yl]spiro[cyclopropane-1,3′-indol]-2′(1H)-one] reads 1.08 µM; that for `CN1C(=O)[C@@]2(C[C@H]2c2cn(C)c(=O)c3[nH]c(-c4ccncn4)cc23)c2ccccc21` (racemic) [Example 55, rac-(1R,2S)-1′-methyl-2-[6-methyl-7-oxo-2-(pyrimidin-4-yl)-6,7-dihydro-1H-pyrrolo[2,3-c]pyridin-4-yl]spiro[cyclopropane-1,3′-indol]-2′(1H)-one], 3.42 µM.
Regarding `CN1C(=O)[C@@]2(C[C@H]2c2cn(C)c(=O)c3[nH]c(-c4ccnnc4)cc23)c2ccccc21` (racemic) [Example 56, rac-(1R,2S)-1′-methyl-2-[6-methyl-7-oxo-2-(pyridazin-4-yl)-6,7-dihydro-1H-pyrrolo[2,3-c]pyridin-4-yl]spiro[cyclopropane-1,3′-indol]-2′(1H)-one], the inhibition constant Ki is 2.76 µM.
For `CN1C(=O)[C@@]2(C[C@@]2(C)c2cn(C)c(=O)c3[nH]c(C(=O)NC4CC4)cc23)c2ccc(OC(F)(F)F)cc21` (racemic) [Example 58, rac-N-cyclopropyl-4-[(1R,2S)-1′,2-dimethyl-2′-oxo-6′-(trifluoromethoxy)-1′,2′-dihydrospiro[cyclopropane-1,3′-indol]-2-yl]-6-methyl-7-oxo-6,7-dihydro-1H-pyrrolo[2,3-c]pyridine-2-carboxamide] the value was greater than 13 µM; for `CN1C(=O)[C@]2(C[C@@H]2c2cn(C)c(=O)c3[nH]c(C(=O)O)cc23)c2ccccc21` (single isomer, unassigned) [Example 6], greater than 13 µM.
As to `CN1C(=O)[C@@]2(C[C@H]2c2cn(C)c(=O)c3[nH]c(C(=O)O)cc23)c2ccccc21` (single isomer, unassigned) [Example 7], the Ki was greater than 13 µM.
For `CN1C(=O)[C@@]2(C[C@H]2c2cn(C)c(=O)c3[nH]c(C(=O)NC4CC4)cc23)c2cc(F)ccc21` (single isomer, unassigned) [Example 18] the value was greater than 13 µM; for `Cn1cc([C@H]2C[C@]23C(=O)Nc2ccccc23)c2cc(C(=O)NC3CC3)[nH]c2c1=O` (single isomer, unassigned) [Example 20], 7.34 µM.
The result for `Cn1cc([C@@H]2C[C@@]23C(=O)Nc2ccccc23)c2cc(C(=O)NC3CC3)[nH]c2c1=O` (single isomer, unassigned) [Example 21] reads greater than 13 µM; that for `CN1C(=O)[C@@]2(C[C@H]2c2cn(C)c(=O)c3[nH]c(C(=O)NC4CC4)cc23)c2ccccc21` [Example 4, N-cyclopropyl-6-methyl-4-[(1R,2S)-1′-methyl-2′-oxo-1′,2′-dihydrospiro[cyclopropane-1,3′-indol]-2-yl]-7-oxo-6,7-dihydro-1H-pyrrolo[2,3-c]pyridine-2-carboxamide], greater than 13 µM; that for `CN1C(=O)[C@]2(C[C@@H]2c2cn(C)c(=O)c3[nH]c(C(=O)NC4CC4)cc23)c2cc(F)ccc21` [Example 17, N-cyclopropyl-4-[(1S,2R)-5′-fluoro-′-methyl-2′-oxo-1′,2′-dihydrospiro[cyclopropane-1,3′-indol]-2-yl]-6-methyl-7-oxo-6,7-dihydro-1H-pyrrolo[2,3-c]pyridine-2-carboxamide], 5.04 µM.
